Experimental data: patent publication US20100143999A1, “PROCESS FOR FERMENTIVE PREPARATION OF ALCOHOLS AND RECOVERY OF PRODUCT” (E.I. DU PONT DE NEMOURS AND COMPANY, priority 2008, published 2010)

Experiments:
[1] = tested on: Saccharomyces cerevisiae (W1362 20A); assay: Scale-up fermentation (25 mL broth) with 5 volume percent ionic liquid, HPLC over five hours; type: cell-based; settings: five hour time span, FIG. 2
Procedure: Cultures were again prepared using the same growth conditions as described above except that the total broth volume was 25 mL. The selected ionic liquids were added to a container of each broth in an amount of 5 volume percent. In these experiments, small samples were withdrawn from the broth for HPLC analysis periodically over a five hour time span to get a better idea of the extent of metabolic activity after ionic liquid addition as well as to provide information on glucose consumption and product formation. […] The calculation of GUI was made as described above, and amount of ethanol produced was taken directly from the HPLC data.

[2] = tested on: Saccharomyces cerevisiae (W1362 20A); assay: Glucose Uptake Index of S. cerevisiae culture with 5% (v/v) ionic liquid; type: cell-based; settings: YPD medium, 30° C., 16 hours after addition
Procedure: After 24 hours the test tube was removed and stored at 4° C.

[3] = Extraction of isobutanol from an aqueous solution by ionic liquid; type: physicochemical; settings: 3 mL aqueous solution about 31 g/L isobutanol, 150 microliters (5 vol %) ionic liquid, overnight equilibration
Procedure: (§1) Ethanol and isobutanol concentration in the solution was measured using HPLC as described above following thorough mixing and overnight equilibration of the contents of the vial.

[4] = Extraction of ethanol from an aqueous solution by ionic liquid; type: physicochemical; settings: 3 mL aqueous solution about 31 g/L ethanol, 150 microliters (5 vol %) ionic liquid, overnight equilibration
Procedure: as §1

| Compound | ethanol production [1] | glucose uptake [1] | GUI of Example (Glucose Utilization Index in the presence of ionic liquid phase) [2] | Isobutanol (concentration in the solution after extraction) [3] | Ethanol (concentration in the solution after extraction) [4] | GUI of Example (Glucose Utilization Index in the presence of ionic liquid phase) ([2]; listed as 14) |
| --- | --- | --- | --- | --- | --- | --- |
| 1-butyl-3-methylpyrrolidinium bis(trifluoromethylsulfonyl)imide [Example 15] | remained robust | remained robust | – | – | – | – |
| 1-ethyl-3-methylimidazolium bis(trifluoromethylsulfonyl)imide [Example 6] | remained robust | remained robust | 76.8 | 389 mM | 670 mM | – |
| 1-butyl-3-methylimidazolium 1,1,2-trifluoro-2-(trifluoromethoxy)ethanesulfonate [Example 10] | – | – | 37.1 | – | – | – |
| 1-hexyl-3-methylimidazolium bis(trifluoromethylsulfonyl)imide [Example 9] | remained robust | remained robust | 89.5 | 388 mM | 678 mM | – |
| CCCCCCn1cc[n+](C)c1.FC(F)(F)C(F)(F)[P-](F)(F)(F)(C(F)(F)C(F)(F)F)C(F)(F)C(F)(F)F [Example 1, 1-hexyl-3-methylimidazolium tris(pentafluoroethyl)trifluorophosphate] | remained robust | remained robust | 99.7 | 404 mM | 680 mM | – |
| 1-butyl-3-methylimidazolium 2-(1,2,2,2-tetrafluoroethoxy)-1,1,2,2-tetrafluoroethanesulfonate [Example 13] | – | – | 42.8 | – | – | – |
| 1-butyl-3-methylimidazolium 1,1,2-trifluoro-2-(perfluoroethoxy)ethanesulfonate [Example 4] | – | – | 22.0 | – | – | – |
| tetradecyl(tri-n-hexyl)phosphonium 1,1,2-trifluoro-2-(perfluoroethoxy)ethanesulfonate [Example 2] | – | – | 78.4 | – | – | – |
| 1-butyl-3-methylimidazolium 1,1,2,3,3,3-hexafluoropropanesulfonate [Example 11] | – | – | 30.1 | – | – | 31.9 |
| CCCCn1cc[n+](C)c1.F[P-](F)(F)(F)(F)F [Example 7, 1-butyl-3-methylimidazolium hexafluorophosphate] | – | – | 48.2 | – | – | – |
| 3-methyl-1-propylpyridinium bis(trifluoromethylsulfonyl)imide [Example 12] | – | – | 97.1 | – | – | – |
